Key:
C57BL/6J mice = assay: Discrete-trials temporal discrimination task; assay type: in vivo, mouse
5-HT2C = settings: in mice; ref Canal et al., 2013; cited from earlier work
5-HT2C receptors = settings: ref Kennett et al., 1997; cited from earlier work
5-HT2A [1] = settings: in humans; ref Almaula et al., 1996; Pigott et al., 2012; Canal et al., 2013; cited from earlier work
5-HT2A [2] = settings: in mice; ref Canal et al., 2013; cited from earlier work
5-HT2A [3] = settings: ref Kehne et al., 1996; cited from earlier work
[4] = SB-242,084 0.1 mg/kg SC, 10 min before session
[5] = SB-242,084 0.3 mg/kg SC, 10 min before session
[6] = SB-242,084 1 mg/kg SC, 10 min before session
[7] = DOI 0.3 mg/kg IP, 10 min before session
[8] = DOI 1 mg/kg IP, 10 min before session
[9] = DOI 3 mg/kg IP, 10 min before session, dose-response experiment
[10] = M100907 blockade experiment: vehicle pretreatment, DOI 3 mg/kg IP
[11] = SB-242,084 blockade experiment: vehicle pretreatment, DOI 3 mg/kg IP
[12] = M100907 0.03 mg/kg SC, 10 min before session
[13] = M100907 0.1 mg/kg SC, 10 min before session
[14] = M100907 0.3 mg/kg SC, 10 min before session

6-chloro-2,3-dihydro-5-methyl-N-[6-[(2-methyl-3-pyridinyl)oxy]-3-pyridinyl]-1H-indole-1-carboxyamide dihydrochloride [SB-242,084]
Effect of pretreatment on the response to DOI (%B responding) (C57BL/6J mice; SB-242,084 0.1 mg/kg SC pretreatment, DOI 3 mg/kg IP): did not block the ability of DOI to alter %B responding
Difference limen (C57BL/6J mice; [4]): 0.98 ± 0.10 s
Slope (ε) (C57BL/6J mice; [4]): 1.202±0.110
T50 (C57BL/6J mice; [4]): 6.28 ± 0.14 s
Trials completed (C57BL/6J mice; [4]): 191.4±1.6
Weber fraction (C57BL/6J mice; SB-242,084 0.1 mg/kg SC, 10 min before session, mean±SEM): 0.156±0.016
Difference limen (C57BL/6J mice; [5]): 1.05 ± 0.08 s
Slope (ε) (C57BL/6J mice; [5]): 1.094±0.084
T50 (C57BL/6J mice; [5]): 6.02 ± 0.14 s
Trials completed (C57BL/6J mice; [5]): 189.9±2.5
Weber fraction (C57BL/6J mice; [5]): 0.173±0.015
Difference limen (C57BL/6J mice; [6]): 1.07 ± 0.09 s
Slope (ε) (C57BL/6J mice; [6]): 1.105±0.108
T50 (C57BL/6J mice; [6]): 5.66 ± 0.17 s
Trials completed (C57BL/6J mice; [6]): 188.0±2.8
Weber fraction (C57BL/6J mice; [6]): 0.191±0.018
Selectivity for 5-HT2C over 5-HT2A (5-HT2C): 960 fold
Selectivity for 5-HT2C receptors compared with 5-HT2A and 5-HT2B receptors (5-HT2C receptors): over 100 fold

COc1cc(CC(C)N)c(OC)cc1I.Cl (stereo not drawn) [DOI, 1-(2,5-dimethoxy-4-iodophenyl)-2-aminopropane hydrochloride]
Selectivity for 5-HT2A (5-HT2A [1]): ~ 5 fold
Difference limen (C57BL/6J mice; [7]): 1.20 ± 0.12 s
Slope (ε) (C57BL/6J mice; [7]): 1.009±0.108
T50 (C57BL/6J mice; [7]): 6.36 ± 0.17 s
Trials completed (C57BL/6J mice; [7]): 188.3±2.7
Weber fraction (C57BL/6J mice; DOI 0.3 mg/kg IP, 10 min before session, mean±SEM): 0.192±0.022
Difference limen (C57BL/6J mice; [8]): 1.29 ± 0.14 s
Slope (ε) (C57BL/6J mice; [8]): 0.968±0.133
T50 (C57BL/6J mice; [8]): 6.43 ± 0.13 s
Trials completed (C57BL/6J mice; [8]): 174.6±5.4
Weber fraction (C57BL/6J mice; [8]): 0.200±0.021
Difference limen (C57BL/6J mice; [9]): 1.89 ± 0.14 s
Slope (ε) (C57BL/6J mice; [9]): 0.608±0.044
T50 (C57BL/6J mice; [9]): 7.08 ± 0.41 s
Weber fraction (C57BL/6J mice; [9]): 0.275±0.030
%B responding (proportional choice of lever B) (C57BL/6J mice; DOI 3 mg/kg IP, 6.1, 7.8, 8.7 and 10.5 s after trial onset, dose-response experiment): significant reductions in %B responding
%B responding (proportional choice of lever B) (C57BL/6J mice; DOI 3 mg/kg IP, 6.9, 7.8, 9.6 and 10.5 s trials, M100907 blockade experiment): reduced %B responding
Difference limen (C57BL/6J mice; [10]): 1.71 ± 0.14 s
Slope (ε) (C57BL/6J mice; [10]): 0.661±0.044
T50 (C57BL/6J mice; [10]): 7.35 ± 0.20 s
Trials completed (C57BL/6J mice; [10]): 148.3±8.8
Weber fraction (C57BL/6J mice; [10]): 0.233±0.018
Difference limen (C57BL/6J mice; [11]): 1.74 ± 0.16 s
Slope (ε) (C57BL/6J mice; [11]): 0.713±0.101
T50 (C57BL/6J mice; [11]): 6.89 ± 0.31 s
Trials completed (C57BL/6J mice; [11]): 142.5±8.8
Weber fraction (C57BL/6J mice; [11]): 0.255±0.026
Correct responding during the 10.5 s-trials (C57BL/6J mice; after drug treatment that reduced %B responding at long stimulus intervals): more than 80%
Selectivity for 5-HT2A vs. 5-HT2C receptors (5-HT2A [2]): 12 fold

COc1cccc([C@H](O)C2CCN(CCc3ccc(F)cc3)CC2)c1OC [M100907, (R)-(+)-α-(2,3-dimethoxyphenyl)-1-[2-(4-fluorophenyl)ethyl]-4-piperidinemethanol]
Affinity for 5-HT2A (5-HT2A [3]): subnanomolar
Fold lower affinity for 5-HT2C and α1 receptors than for 5-HT2A (5-HT2A [3]): at least 100 fold
Effect of pretreatment on the T50 increase produced by DOI (C57BL/6J mice; M100907 0.03 mg/kg SC pretreatment, DOI 3 mg/kg IP): failed to completely block the T50 increase produced by DOI
Effect of pretreatment on the response to DOI (%B responding) (C57BL/6J mice; M100907 0.03 mg/kg SC pretreatment, DOI 3 mg/kg IP, 6.9 and 10.5 s stimuli): blocked the effect of DOI on %B responding
Difference limen (C57BL/6J mice; [12]): 1.31 ± 0.25 s
Slope (ε) (C57BL/6J mice; [12]): 0.997±0.114
T50 (C57BL/6J mice; [12]): 6.42 ± 0.23 s
Trials completed (C57BL/6J mice; [12]): 163.6±6.5
Weber fraction (C57BL/6J mice; M100907 0.03 mg/kg SC, 10 min before session, mean±SEM): 0.214±0.051
Difference limen (C57BL/6J mice; [13]): 1.48 ± 0.15 s
Slope (ε) (C57BL/6J mice; [13]): 0.791±0.070
T50 (C57BL/6J mice; [13]): 6.80 ± 0.37 s
Trials completed (C57BL/6J mice; [13]): 155.4±7.4
Weber fraction (C57BL/6J mice; M100907 0.1 mg/kg SC, 10 min before session, mean±SEM): 0.220±0.021
Difference limen (C57BL/6J mice; [14]): 1.60 ± 0.20 s
Slope (ε) (C57BL/6J mice; [14]): 0.857±0.184
T50 (C57BL/6J mice; M100907 0.3 mg/kg SC, 10 min before session, 0.3 mg/kg): 7.71 ± 0.45 s
Weber fraction (C57BL/6J mice; M100907 0.3 mg/kg SC, 10 min before session, mean±SEM): 0.206±0.021
Selectivity for 5-HT2A vs. 5-HT2C receptors (5-HT2A [2]): 165 fold
